Assay results from patent publication US12351581B2, “Compounds for FGFR inhibition” (Cogent Biosciences, Inc., priority 2023, dated 2025).
Where two headings read alike, the source gives them in different places.

Tests used:
FGFR2 = biological target: T1, FGFR2 (Homo sapiens, UniProt P21802); experiment: FGFR wild type enzyme assay (HTRF KinEASE-TK); type: biochemical; conditions: ATP 2 uM
T1 construct: biochemical assays using purified intracellular domains of the respective isoforms; purchased Carna Bioscience 08-134
Experimental: (§1) Activity against FGFR wild type and mutant enzymes were determined in biochemical assays using purified intracellular domains of the respective isoforms using HTRF KinEASE-TK assay technology from CisBio, now PerkinElmer. (Catalogue number 62TK0PEC). Briefly test compounds were tested in 11 point 1:3 serial dilutions, typical final concentration range from 10,000 nM to 0.17 nM. Test compounds were dissolved in DMSO and added to assay plates using acoustic transfer. Enzyme was pre-incubated with test compound for 30 minutes and the assay was initiated by addition of ATP and TK-peptide substrate. After 60 minutes at room temperature the reaction was quenched with detection reagent and incubated for an additional 60 minutes at room temperature. The plates were read using a multimode reader and the emission ratio of 665 nm to 615 nm was determined. This ratio was converted to percent of control (POC). [1-(high control-sample signal)/(high control-low control)]*100. Wells without compound were used to determine high control values and wells without enzyme were used to determine low control values. The POC values were fit using a four-parameter logistic model and the value where the fit curve was equal to 50 POC was reported as the IC50 using the Signals Vitro Vivo software package (PerkinElmer). Final assay conditions were: 50 mM HEPES pH7.5, 10 mM MgCl2, 1 mM EDTA, 0.01% Brij-35, 2 mM MnCl2, 1 mM DTT, and 0.5 uM TK-peptide. The enzyme source, catalogue number, final enzyme concentration, and final ATP concentration can be found in the tables 1-2 below.

FGFR2-WT = FGFR2-WT (Homo sapiens, UniProt P21802); experiment: Phosphorylated FGFR2-WT (pFGFR2-WT) cell assay, KATOIII cells; type: cell-based; conditions: 1 hour incubation, phospho FGFR2 HTRF
Experimental: KATOIII cells were grown in the appropriate growth medium, IMDM supplemented with 20% fetal bovine serum. Cells were seeded into a 384-well at 1×10^5 cells/25 μL/well. Cells were treated with compound using three-fold serial dilutions at final concentrations ranging from 10 μM to 0.5 nM. Compound was incubated on cells for 1 hour at 37° C., 5% CO2.
Following the 1-hour incubation with compounds, cell lysates were prepared and phospho FGFR2 was measured using the HTRF Phospho-FGFR2 (TYR653/654) Detection Kits (CisBio, cat #64FGFR2Y6PEG). 8 μL of cell lysis buffer (4×) supplied with 1× Phospho and Total protein blocking reagent (CisBio, cat #64FGFR2Y6PEG, CisBio, cat #64KB1AAC) was then added to the wells. Cells were incubated with lysis buffer for 40 minutes at 4° C. under shaking conditions. Plates were centrifuged at 1500 rpm for 3 min and then 16 μL of cell lysate was transferred from the cell-culture plate to a small volume detection plate with the added premixed antibody solutions (4 μL) (CisBio, cat #64FGFR2Y6PEG). Plates were centrifuged at 1000 rpm for 1 min then incubated at 25° C. for 120 min, then overnight at 4° C. Plates were read on the En Vision multimode plate reader via HTRF dual wavelength detection. One hundred percent of control (POC) was determined using DMSO treated samples, and 0 POC was determined using the top concentration of a control compound. A 4-parameter logistic curve was fit to the POC values as a function of compound concentration to determine the IC50 value.

FGFR2 V564I = biological target: T2, FGFR2 V564I (Homo sapiens, UniProt P21802, V564I); experiment: FGFR mutant enzyme assay (HTRF KinEASE-TK); type: biochemical; conditions: ATP 0.4 uM
T2 construct: biochemical assays using purified intracellular domains of the respective isoforms; purchased Carna Bioscience 08-546
Experimental: as §1

FGFR2 N549H = biological target: T3, FGFR2 N549H (Homo sapiens, UniProt P21802, N549H); experiment: FGFR mutant enzyme assay (HTRF KinEASE-TK); type: biochemical; conditions: ATP 0.9 uM
T3 construct: biochemical assays using purified intracellular domains of the respective isoforms; purchased Carna Bioscience 08-532
Experimental: as §1

FGFR2 V564F = biological target: T4, FGFR2 V564F (Homo sapiens, UniProt P21802, V564F); experiment: FGFR mutant enzyme assay (HTRF KinEASE-TK); type: biochemical; conditions: ATP 1.5 uM
T4 construct: biochemical assays using purified intracellular domains of the respective isoforms; purchased SignalChem Biotech F05-12FG
Experimental: as §1

[1] = compound table after the examples, read-out: Enz FGFR2

T3 sequence (P21802 399-821 N549H limits assumed): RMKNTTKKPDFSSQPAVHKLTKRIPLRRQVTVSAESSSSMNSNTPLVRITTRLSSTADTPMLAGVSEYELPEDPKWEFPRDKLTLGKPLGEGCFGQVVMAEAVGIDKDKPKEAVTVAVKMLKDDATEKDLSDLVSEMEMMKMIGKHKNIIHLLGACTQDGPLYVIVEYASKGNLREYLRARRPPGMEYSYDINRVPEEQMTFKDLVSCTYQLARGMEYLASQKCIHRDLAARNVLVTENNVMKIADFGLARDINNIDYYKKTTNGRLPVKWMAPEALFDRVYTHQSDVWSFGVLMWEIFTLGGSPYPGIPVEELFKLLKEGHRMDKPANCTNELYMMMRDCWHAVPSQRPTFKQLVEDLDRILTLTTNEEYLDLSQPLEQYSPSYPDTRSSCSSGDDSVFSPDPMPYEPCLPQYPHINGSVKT
Chain of FGFR2-WT (P21802 430-767 limits assumed): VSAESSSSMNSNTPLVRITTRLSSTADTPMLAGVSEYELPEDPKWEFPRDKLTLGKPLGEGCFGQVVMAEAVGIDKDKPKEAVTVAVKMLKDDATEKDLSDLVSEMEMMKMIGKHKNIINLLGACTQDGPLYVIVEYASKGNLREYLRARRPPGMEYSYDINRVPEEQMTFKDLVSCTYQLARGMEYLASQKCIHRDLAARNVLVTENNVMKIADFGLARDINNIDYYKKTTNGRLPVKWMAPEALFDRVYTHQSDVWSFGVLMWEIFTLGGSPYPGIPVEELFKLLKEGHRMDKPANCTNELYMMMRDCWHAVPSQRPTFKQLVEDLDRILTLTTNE
T1 sequence (P21802 399-821 limits assumed): as the sequence (P21802 399-821 N549H limits assumed) above, with H151N counted along it
T4 sequence (P21802 399-821 V564F limits assumed): as the sequence (P21802 399-821 N549H limits assumed) above, with H151N, V166F counted along it
T2 sequence (P21802 399-821 V564I limits assumed): as the sequence (P21802 399-821 N549H limits assumed) above, with H151N, V166I counted along it

| IC50 (FGFR2; Table 3, read-out: FGFR2 Enz) | IC50 (FGFR2; [1]) | IC50 (FGFR2-WT) | IC50 (FGFR2 V564I) | IC50 (FGFR2 N549H) | IC50 (FGFR2 V564F) | Compound |
| --- | --- | --- | --- | --- | --- | --- |
| 0.5 nM | 0.6 nM | 4 nM | 2 nM | 0.5 nM | 1 nM | Cc1c(-c2cc(O[C@H](C)c3ccc(F)cn3)c3c(C#N)cnn3c2)cnn1[C@H]1CCCN(C(=O)[C@H](C)O)C1 [Compound 18, 4-((R)-1-(5-fluoropyridin-2-yl)ethoxy)-6-(1-((S)-1-((S)-2-hydroxypropanoyl)piperidin-3-yl)-5-methyl-1H-pyrazol-4-yl)pyrazolo[1,5-a]pyridine-3-carbonitrile] |
| 0.15 nM | 0.15 nM | 1.25 nM | 0.4 nM | 0.1 nM | 0.3 nM | C[C@H](O)C(=O)N1CCC(n2cc(-c3cc(O[C@H](C)c4ccc(F)cn4)c4c(C#N)cnn4c3)cn2)CC1 [Compound 19, 4-((R)-1-(5-fluoropyridin-2-yl)ethoxy)-6-(1-(1-((S)-2-hydroxypropanoyl)piperidin-4-yl)-1H-pyrazol-4-yl)pyrazolo[1,5-a]pyridine-3-carbonitrile] |
| 1.7 nM | 1.7 nM | 24 nM | 11 nM | 3 nM | 6 nM | Cc1c(-c2cc(O[C@H](C)c3ccc(F)cn3)c3c(C#N)cnn3c2)cnn1C [Compound 21, 6(R)-6-(1,5-dimethyl-1H-pyrazol-4-yl)-4-(1-(5-fluoropyridin-2-yl)ethoxy)pyrazolo[1,5-a]pyridine-3-carbonitrile] |
| 0.3 nM | 0.3 nM | 2.7 nM | 1.4 nM | 0.4 nM | 1 nM | Cc1c(-c2cc(O[C@H](C)c3ccc(F)cn3)c3c(C#N)cnn3c2)cnn1[C@H]1CC[C@](C)(O)CC1 [Compound 22, 4-((R)-1-(5-fluoropyridin-2-yl)ethoxy)-6-(1-((1r,4R)-4-hydroxy-4-methylcyclohexyl)-5-methyl-1H-pyrazol-4-yl)pyrazolo[1,5-a]pyridine-3-carbonitrile] |
| 0.4 nM | 0.4 nM | 4 nM | 2 nM | 0.6 nM | 1 nM | Cc1c(-c2cc(O[C@H](C)c3ccc(F)cn3)c3c(C#N)cnn3c2)cnn1[C@H]1CC[C@@](C)(O)CC1 [Compound 23, 4-((R)-1-(5-fluoropyridin-2-yl)ethoxy)-6-(1-((1s,4S)-4-hydroxy-4-methylcyclohexyl)-5-methyl-1H-pyrazol-4-yl)pyrazolo[1,5-a]pyridine-3-carbonitrile] |
| 0.3 nM | 0.3 nM | 3 nM | 1 nM | 0.3 nM | 1 nM | C[C@@H](Oc1cc(-c2ccc(N3CCN(C)[C@@H](CO)C3)nc2)cn2ncc(C#N)c12)c1ccc(F)cn1 [Compound 24, 4-((R)-1-(5-fluoropyridin-2-yl)ethoxy)-6-(6-((R)-3-(hydroxymethyl)-4-methylpiperazin-1-yl)pyridin-3-yl)pyrazolo[1,5-a]pyridine-3-carbonitrile] |
| 0.3 nM | 0.3 nM | 3 nM | 1 nM | 0.25 nM | 0.7 nM | C[C@@H](Oc1cc(-c2ccc(N3CC[C@@H](O)[C@@H](O)C3)nc2)cn2ncc(C#N)c12)c1ccc(F)cn1 [Compound 25, 6-(6-((3S,4R)-3,4-dihydroxypiperidin-1-yl)pyridin-3-yl)-4-((R)-1-(5-fluoropyridin-2-yl)ethoxy)pyrazolo[1,5-a]pyridine-3-carbonitrile] |
| 0.5 nM | 0.5 nM | 4 nM | 1 nM | 0.3 nM | 1 nM | C[C@@H](Oc1cc(-c2ccc(N3CC[C@H](O)[C@H](O)C3)nc2)cn2ncc(C#N)c12)c1ccc(F)cn1 [Compound 26, 6-(6-((3R,4S)-3,4-dihydroxypiperidin-1-yl)pyridin-3-yl)-4-((R)-1-(5-fluoropyridin-2-yl)ethoxy)pyrazolo[1,5-a]pyridine-3-carbonitrile] |
| 3 nM | 3 nM | 23 nM | 17 nM | 5 nM | 11 nM | Cc1c(-c2cc(O[C@H](C)c3ccc(F)cn3)c3c(C#N)cnn3c2)cnn1C[C@H](O)CO [Compound 27, 6-(1-((S)-2,3-dihydroxypropyl)-5-methyl-1H-pyrazol-4-yl)-4-((R)-1-(5-fluoropyridin-2-yl)ethoxy)pyrazolo[1,5-a]pyridine-3-carbonitrile] |
| 3 nM | 3 nM | 17 nM | 12 nM | 5 nM | 10 nM | Cc1nn(C[C@H](O)CO)cc1-c1cc(O[C@H](C)c2ccc(F)cn2)c2c(C#N)cnn2c1 [Compound 28, 6-(1-((S)-2,3-dihydroxypropyl)-3-methyl-1H-pyrazol-4-yl)-4-((R)-1-(5-fluoropyridin-2-yl)ethoxy)pyrazolo[1,5-a]pyridine-3-carbonitrile] |
| 0.3 nM | 0.3 nM | 4 nM | 1.5 nM | 0.6 nM | 1.4 nM | C[C@@H](Oc1cc(-c2cnn([C@H]3CCCNC3)c2N)cn2ncc(C#N)c12)c1ccc(F)cn1 [Compound 29, 6-(5-amino-1-((S)-piperidin-3-yl)-1H-pyrazol-4-yl)-4-((R)-1-(5-fluoropyridin-2-yl)ethoxy)pyrazolo[1,5-a]pyridine-3-carbonitrile] |
| 1 nM | 1 nM | 9 nM | 6 nM | 2 nM | 3.7 nM | C[C@@H](Oc1cc(-c2cnn(C)c2N)cn2ncc(C#N)c12)c1ccc(F)cn1 [Compound 30, (R)-6-(5-amino-1-methyl-1H-pyrazol-4-yl)-4-(1-(5-fluoropyridin-2-yl)ethoxy)pyrazolo[1,5-a]pyridine-3-carbonitrile] |
| 1 nM | 1 nM | 7 nM | 5.6 nM | 2 nM | 5 nM | C[C@@H](Oc1cc(-c2cnn(CCO)c2N)cn2ncc(C#N)c12)c1ccc(F)cn1 [Compound 31, (R)-6-(5-amino-1-(2-hydroxyethyl)-1H-pyrazol-4-yl)-4-(1-(5-fluoropyridin-2-yl)ethoxy)pyrazolo[1,5-a]pyridine-3-carbonitrile] |
| 0.4 nM | 0.4 nM | 2.5 nM | 1 nM | 0.3 nM | 1 nM | C[C@@H](Oc1cc(-c2cnn([C@H]3CC[C@H](O)CC3)c2N)cn2ncc(C#N)c12)c1ccc(F)cn1 [Compound 32, 6-(5-amino-1-((1r,4R)-4-hydroxycyclohexyl)-1H-pyrazol-4-yl)-4-((R)-1-(5-fluoropyridin-2-yl)ethoxy)pyrazolo[1,5-a]pyridine-3-carbonitrile] |
| 1 nM | 1 nM | 6 nM | 3 nM | 0.7 nM | 2 nM | Cc1c(-c2cc(O[C@H](C)c3ccc(F)cn3)c3c(C#N)cnn3c2)cnn1C1CCS(=O)(=O)CC1 [Compound 33, (R)-6-(1-(1,1-dioxidotetrahydro-2H-thiopyran-4-yl)-5-methyl-1H-pyrazol-4-yl)-4-(1-(5-fluoropyridin-2-yl)ethoxy)pyrazolo[1,5-a]pyridine-3-carbonitrile] |
